This note sets out measurements from BindingDB's records for PubMed 1930610 (Eli Lilly, 1991).

The term Ki denotes a measure of affinity in units of concentration, obtained from inhibition or displacement. Low values mean higher affinity, high ones lower affinity.

Where a name gives a salt, the structure may show the parent alone.

The target of assay [1] is 5-hydroxytryptamine receptor 2A (Rattus norvegicus, UniProt P14842).
The target in assay [2] is T1, 5-hydroxytryptamine receptor 1A (Rattus norvegicus, UniProt P19327).
T1 sequence (P19327 whole entry): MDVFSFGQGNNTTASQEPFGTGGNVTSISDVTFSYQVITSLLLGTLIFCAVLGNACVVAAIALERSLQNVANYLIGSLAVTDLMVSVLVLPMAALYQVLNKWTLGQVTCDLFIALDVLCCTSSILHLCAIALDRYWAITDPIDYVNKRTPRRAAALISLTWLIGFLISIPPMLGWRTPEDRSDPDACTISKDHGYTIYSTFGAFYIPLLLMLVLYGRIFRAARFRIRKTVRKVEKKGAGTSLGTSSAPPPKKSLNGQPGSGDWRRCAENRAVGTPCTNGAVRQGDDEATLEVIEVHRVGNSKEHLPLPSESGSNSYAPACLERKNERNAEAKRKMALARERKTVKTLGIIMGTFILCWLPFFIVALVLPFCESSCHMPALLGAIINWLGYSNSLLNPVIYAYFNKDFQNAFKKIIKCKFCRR

Assay [3] concerns the target 5-hydroxytryptamine receptor 1B (Rattus norvegicus, UniProt P28564).
A further assay addresses Beta-arrestin-2 (Bos taurus, UniProt P32120).
Assay [4] addresses T2, 5-hydroxytryptamine receptor 3A (Rattus norvegicus, UniProt P35563).
T2 sequence (P35563 whole entry): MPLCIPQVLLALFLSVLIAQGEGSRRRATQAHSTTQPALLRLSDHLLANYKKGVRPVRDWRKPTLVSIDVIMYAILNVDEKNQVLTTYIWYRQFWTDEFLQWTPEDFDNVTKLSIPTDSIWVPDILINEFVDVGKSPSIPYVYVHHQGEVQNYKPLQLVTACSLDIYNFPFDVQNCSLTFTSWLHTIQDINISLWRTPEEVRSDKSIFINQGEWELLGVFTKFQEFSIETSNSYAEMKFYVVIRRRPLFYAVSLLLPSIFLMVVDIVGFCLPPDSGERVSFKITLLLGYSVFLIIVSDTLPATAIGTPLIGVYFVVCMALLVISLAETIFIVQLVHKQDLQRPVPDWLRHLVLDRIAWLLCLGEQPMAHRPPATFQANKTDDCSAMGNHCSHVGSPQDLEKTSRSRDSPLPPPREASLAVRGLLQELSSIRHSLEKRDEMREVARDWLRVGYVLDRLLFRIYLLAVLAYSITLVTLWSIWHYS

In assay [5] the target is 5-hydroxytryptamine 1D receptor (Bos taurus, UniProt Q8MI13).
Chain of 5-hydroxytryptamine 1D receptor (Q8MI13 whole entry): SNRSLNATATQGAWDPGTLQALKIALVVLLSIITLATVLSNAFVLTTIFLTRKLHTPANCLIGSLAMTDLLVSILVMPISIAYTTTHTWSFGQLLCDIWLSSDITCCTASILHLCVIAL

Chain of Beta-arrestin-2 (P32120 whole entry): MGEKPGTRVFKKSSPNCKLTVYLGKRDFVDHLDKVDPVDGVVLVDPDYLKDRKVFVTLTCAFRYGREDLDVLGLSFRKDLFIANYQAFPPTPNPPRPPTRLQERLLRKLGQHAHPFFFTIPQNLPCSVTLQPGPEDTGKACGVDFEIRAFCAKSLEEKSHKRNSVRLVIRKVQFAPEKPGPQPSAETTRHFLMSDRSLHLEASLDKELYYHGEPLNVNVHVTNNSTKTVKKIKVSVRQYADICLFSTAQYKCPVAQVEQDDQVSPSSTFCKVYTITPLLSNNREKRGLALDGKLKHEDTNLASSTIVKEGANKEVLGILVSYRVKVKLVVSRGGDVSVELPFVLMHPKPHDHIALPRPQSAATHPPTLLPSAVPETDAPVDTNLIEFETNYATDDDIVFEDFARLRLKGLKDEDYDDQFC
Chain of 5-hydroxytryptamine receptor 1B (P28564 whole entry): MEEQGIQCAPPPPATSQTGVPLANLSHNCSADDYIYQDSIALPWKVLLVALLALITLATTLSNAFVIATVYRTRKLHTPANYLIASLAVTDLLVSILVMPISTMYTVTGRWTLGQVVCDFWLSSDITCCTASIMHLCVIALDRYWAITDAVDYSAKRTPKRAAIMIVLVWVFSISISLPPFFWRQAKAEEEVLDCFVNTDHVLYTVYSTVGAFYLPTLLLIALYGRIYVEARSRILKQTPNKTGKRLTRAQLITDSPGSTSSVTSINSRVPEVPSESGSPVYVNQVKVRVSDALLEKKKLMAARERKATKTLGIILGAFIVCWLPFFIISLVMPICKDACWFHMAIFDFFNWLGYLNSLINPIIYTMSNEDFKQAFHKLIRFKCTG
Chain of 5-hydroxytryptamine receptor 2A (P14842 whole entry): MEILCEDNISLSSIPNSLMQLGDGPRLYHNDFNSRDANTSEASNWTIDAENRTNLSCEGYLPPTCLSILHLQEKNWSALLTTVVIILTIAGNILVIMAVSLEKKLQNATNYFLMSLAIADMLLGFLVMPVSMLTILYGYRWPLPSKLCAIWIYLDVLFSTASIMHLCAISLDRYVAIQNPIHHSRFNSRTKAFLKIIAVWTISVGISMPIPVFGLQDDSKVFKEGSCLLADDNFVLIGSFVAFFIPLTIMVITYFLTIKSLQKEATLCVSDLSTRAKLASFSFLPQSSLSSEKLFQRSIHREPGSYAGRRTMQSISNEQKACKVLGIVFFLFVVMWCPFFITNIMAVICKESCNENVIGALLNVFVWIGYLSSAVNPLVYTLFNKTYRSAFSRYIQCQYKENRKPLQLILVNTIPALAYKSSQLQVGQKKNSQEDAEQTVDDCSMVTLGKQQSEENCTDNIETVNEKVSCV

Regarding `COc1ccc(OC[C@H]2CN(C)CC[C@@H]2c2ccccc2)cc1` [(3R,4S)-3-(4-Methoxy-phenoxymethyl)-1-methyl-4-phenyl-piperidine], the inhibition constant (Ki) in assay [1] was 0.407 µM; in assay [2], 3.16 µM; in assay [3] it was 9.33 µM; on Beta-arrestin-2 it was 1.91 µM; in assay [4], above 10 µM; in assay [5], 3.72 µM.
As for `CNCC[C@@H](Oc1ccc(C(F)(F)F)cc1)c1ccccc1` [Prozac], the results for the inhibition constant (Ki) (on Beta-arrestin-2; in assay [5]) were 0.269 µM and 4.27 µM, respectively.
On to `c1ccc2c(CCC3CCNCC3)c[nH]c2c1`, for which the Ki in assay [1] is 0.794 µM; in assay [2], 9.12 µM; in assay [3], 4.47 µM; on Beta-arrestin-2, 3.24 µM; in assay [4], 3.24 µM; in assay [5] it was 3.63 µM.
Take `CNCC[C@@H](Oc1ccc(C(F)(F)F)cc1)c1ccccc1` [Fluoxetine-R-(-)]: the inhibition constant (Ki) at Beta-arrestin-2 is 0.155 µM; in assay [5], above 10 µM.
`Fc1ccc([C@@H]2CCNC[C@H]2COc2ccc3c(c2)OCO3)cc1` [PAROXETINE]: the Ki was above 10 µM in assay [2]; above 10 µM in assay [3]; above 10 µM at Beta-arrestin-2; 2.63 µM in assay [4]; 4.9 µM in assay [5].
Regarding `CN(C)CCCC1(c2ccc(F)cc2)OCc2cc(C#N)ccc21` (configuration not stated) [CITALOPRAM HYDROBROMIDE], the Ki in assay [3] is above 10 µM; on Beta-arrestin-2 it was 3.31 µM; in assay [4], above 10 µM; in assay [5] it was above 10 µM.
In the case of `CNCC[C@@H](Oc1ccc(C(F)(F)F)cc1)c1ccccc1` [(3R)-N-methyl-3-phenyl-3-[4-(trifluoromethyl)phenoxy]propan-1-amine], the Ki turned out to be 3.63 µM at Beta-arrestin-2 and 3.89 µM in assay [5].
